Reference: patent US9556205B2, “Fungicide N-[(trisubstitutedsilyl)methyl]-carboxamide derivatives” (BAYER INTELLECTUAL PROPERTY GMBH, priority 2010, dated 2017)
Several values for one entry are separate records, joined by “and”; a condition that tells them apart may be missing. Equal values may be shown once.

Tests used:
Leptosphaeria nodorum = assay: In vivo preventive test on Leptosphaeria nodorum (wheat); conditions: 500 ppm of active ingredient, evaluated 8 days after inoculation
Method: Solvent: 49 parts by weight of N,N-dimethylacetamide Emulsifier: 1 part by weight of alkylaryl polyglycol ether To produce a suitable preparation of active compound, 1 part by weight of active compound or the compound combination is mixed with the stated amounts of solvent and emulsifier, and the concentrate is diluted with water to the desired concentration. To test for protective activity, young plants are sprayed with a preparation of active compound or active compound combination at the stated rate of application. After the spray coating has dried on, the plants are sprayed with a spore suspension of Leptosphaeria nodorum. […] The plants are placed in a greenhouse at a temperature of approximately 15° C. and a relative atmospheric humidity of approximately 80%.

Septoria tritici = assay: In vivo preventive test on Septoria tritici (wheat); conditions: 500 ppm of active ingredient, evaluated 21 days after inoculation
Method: Solvent: 49 parts by weight of N,N-dimethylacetamide Emulsifier: 1 part by weight of alkylaryl polyglycol ether To produce a suitable preparation of active compound, 1 part by weight of active compound or active compound combination is mixed with the stated amounts of solvent and emulsifier, and the concentrate is diluted with water to the desired concentration. To test for preventive activity, young plants are sprayed with the preparation of active compound or active compound combination at the stated rate of application. After the spray coating has dried on, the plants are sprayed with a spore suspension of Septoria tritici. […] The plants are placed in a greenhouse at a temperature of approximately 15° C. and a relative atmospheric humidity of approximately 80%.

Pyrenophora teres = assay: In vivo preventive test on Pyrenophora teres (barley), Example F; conditions: 500 ppm of active ingredient, evaluated 7-9 days after inoculation
Method: (§1) Solvent: 49 parts by weight of N,N-dimethylformamide Emulsifier: 1 part by weight of alkylaryl polyglycol ether To produce a suitable preparation of active compound, 1 part by weight of active compound is mixed with the stated amounts of solvent and emulsifier, and the concentrate is diluted with water to the desired concentration. To test for preventive activity, young plants are sprayed with the preparation of active compound at the stated rate of application. One day after this treatment, the plants are inoculated with an aqueous spore suspension of Pyrenophora teres. […] Then the plants are placed in a greenhouse at a temperature of approximately 20° C. and a relative atmospheric humidity of approximately 80%.

[1] = log P by HPLC on reversed-phase column (C18), EEC Directive 79/831 Annex V.A8; type: physicochemical; conditions: 40° C., 0.1% aqueous formic acid and acetonitrile, linear gradient 10% to 90% acetonitrile
Method: In table 1, the log P values were determined in accordance with EEC Directive 79/831 Annex V.A8 by HPLC (High Performance Liquid Chromatography) on a reversed-phase column (C18), using the method described below:
Temperature: 40° C.; Mobile phases: 0.1% aqueous formic acid and acetonitrile; linear gradient from 10% acetonitrile to 90% acetonitrile.
Calibration was carried out using unbranched alkan-2-ones (comprising 3 to 16 carbon atoms) with known log P values (determination of the log P values by the retention times using linear interpolation between two successive alkanones). lambda-max-values were determined using UV-spectra from 200 nm to 400 nm and the peak values of the chromatographic signals.

Alternaria solani = assay: In vivo preventive test on Alternaria solani (tomato); conditions: 500 ppm of active ingredient, evaluated 7 days after inoculation
Method: as §1, with “Alkylarylpolyglycolether” for “alkylaryl polyglycol ether”, “Alternaria solani.” for “Pyrenophora teres.”, “an incubation cabinet” for “a greenhouse”, “at” for “at a temperature of”, “96%.” for “approximately 80%.”

Venturia inaequalis = assay: In vivo preventive test on Venturia inaequalis (apple scab); conditions: 100 ppm of active ingredient, evaluated 10 days after inoculation
Method: Solvent: 24.5 parts by weight of acetone • 24.5 parts by weight of N,N-dimethylacetamide Emulsifier: 1 part by weight of alkylaryl polyglycol ether To produce a suitable preparation of active compound, 1 part by weight of active compound is mixed with the stated amounts of solvent and emulsifier, and the concentrate is diluted with water to the desired concentration. To test for protective activity, young plants are sprayed with the preparation of active compound at the stated rate of application. […] The plants are then placed in a greenhouse at approximately 21° C. and a relative atmospheric humidity of approximately 90%.

Aspergillus parasiticus = type: cell-based; conditions: 7 days at 20° C., OD620nm
[2] = test system: Aflatoxins production by Aspergillus parasiticus; type: cell-based
Botrytis cinerea = assay: In vivo preventive test on Botrytis cinerea (beans); conditions: 500 ppm of active ingredient, lesion size 2 days after inoculation
Method: Solvent: 24.5 parts by weight of acetone
• 24.5 parts by weight of N,N-dimethylacetamide Emulsifier: 1 part by weight of alkylaryl polyglycol ether
To produce a suitable preparation of active compound, 1 part by weight of active compound is mixed with the stated amounts of solvent and emulsifier, and the concentrate is diluted with water to the desired concentration.
To test for protective activity, young plants are sprayed with the preparation of active compound. After the spray coating has dried on, 2 small pieces of agar covered with growth of Botrytis cinerea are placed on each leaf. The inoculated plants are placed in a darkened chamber at 20° C. and a relative atmospheric humidity of 100%.
2 days after the inoculation, the size of the lesions on the leaves is evaluated. 0% means an efficacy which corresponds to that of the control, while an efficacy of 100% means that no disease is observed. Under these conditions, excellent (at least 95%) to total protection is observed at a dose of 500 ppm of active ingredient with the following compounds from table C: […]

## Cc1nc(C(F)F)c(C(=O)N(C[Si](C)(C)c2cccc(Cl)c2)C2CC2)s1 [Example 32]
Leptosphaeria nodorum
  Efficacy: 100%
Septoria tritici
  Efficacy: 100%
Pyrenophora teres
  Efficacy: 95%
[1]
  logP: 4.32

## Cc1nc(C(F)F)c(C(=O)N(C[Si](C)(C)c2ccccc2Cl)C2CC2)s1 [Example 21]
Leptosphaeria nodorum
  Efficacy: 100%
Septoria tritici
  Efficacy: 100%
Alternaria solani
  Efficacy: 95%
Pyrenophora teres
  Efficacy: 100%
[1]
  logP: 4.32

## Cn1cc(C(=O)N(C[Si](C)(C)c2ccccc2Cl)C2CC2)c(C(F)F)n1 [Example 17]
Leptosphaeria nodorum
  Efficacy: 94%
Septoria tritici
  Efficacy: 83%
Alternaria solani
  Efficacy: 94%
Pyrenophora teres
  Efficacy: 95%
[1]
  logP: 3.73
Venturia inaequalis
  Efficacy: 98%

## Cc1nn(C)c(F)c1C(=S)N(C[Si](C)(C)c1ccccc1)C1CC1 [Example 10]
Leptosphaeria nodorum
  Efficacy: 100%
Septoria tritici
  Efficacy: 100%
Alternaria solani
  Efficacy: 100%
Pyrenophora teres
  Efficacy: 100%
[1]
  logP: 3.99

## CN(C[Si](C)(C)c1ccccc1)C(=O)c1c(C(F)F)nn(C)c1F [Example 4]
Aspergillus parasiticus
  % Inhibition of fungal growth at 50 μM: 100%
[2]
  % Inhibition of Aflatoxin at 50 μM: 100%
Leptosphaeria nodorum
  Efficacy: 93%
Septoria tritici
  Efficacy: 100%
Alternaria solani
  Efficacy: 100%
Pyrenophora teres
  Efficacy: 100%
[1]
  logP: 3.23

## Cc1nn(C)c(F)c1C(=O)N(C[Si](C)(C)c1cccc(Cl)c1)C1CC1 [Example 27]
Leptosphaeria nodorum
  Efficacy: 100%
Septoria tritici
  Efficacy: 100%
Botrytis cinerea
  Efficacy: 98%
Alternaria solani
  Efficacy: 94%
Pyrenophora teres
  Efficacy: 100%
[1]
  logP: 3.67
Venturia inaequalis
  Efficacy: 100%

## CCc1nn(C)c(F)c1C(=S)N(C[Si](C)(C)c1ccccc1)C1CC1 [Example 9]
Leptosphaeria nodorum
  Efficacy: 100%
Septoria tritici
  Efficacy: 93%
Alternaria solani
  Efficacy: 100%
Pyrenophora teres
  Efficacy: 100%
[1]
  logP: 4.41

## Cn1cc(C(=O)N(C[Si](C)(C)c2cccc(Cl)c2)C2CC2)c(C(F)F)n1 [Example 30]
Leptosphaeria nodorum
  Efficacy: 100%
Septoria tritici
  Efficacy: 100%
Alternaria solani
  Efficacy: 95%
Pyrenophora teres
  Efficacy: 100%
[1]
  logP: 3.80

## Cn1nc(C(F)F)c(C(=O)N(C[Si](C)(C)Cc2ccccc2)C2CC2)c1F [Example 55]
Aspergillus parasiticus
  % Inhibition of fungal growth at 50 μM: 99%
[2]
  % Inhibition of Aflatoxin at 50 μM: 100%
Leptosphaeria nodorum
  Efficacy: 100%
Septoria tritici
  Efficacy: 90%
Botrytis cinerea
  Efficacy: 100%
Alternaria solani
  Efficacy: 100%
Pyrenophora teres
  Efficacy: 100%
[1]
  logP: 4.03
Venturia inaequalis
  Efficacy: 100%

## Cn1cc(C(=O)N(C[Si](C)(C)c2ccc(Cl)cc2Cl)C2CC2)c(C(F)F)n1 [Example 41]
Leptosphaeria nodorum
  Efficacy: 95%
Septoria tritici
  Efficacy: 100%
Botrytis cinerea
  Efficacy: 98%
Alternaria solani
  Efficacy: 100%
Pyrenophora teres
  Efficacy: 100%
[1]
  logP: 4.41
Venturia inaequalis
  Efficacy: 100%

## Cc1cc(C(=O)N(C[Si](C)(C)c2ccc(Cl)cc2Cl)C2CC2)c(C)o1 [Example 40]
Septoria tritici
  Efficacy: 100%
Pyrenophora teres
  Efficacy: 95%
[1]
  logP: 5.46

## CCc1nn(C)c(F)c1C(=O)N(C[Si](C)(C)c1ccccc1Cl)C1CC1 [Example 20]
Leptosphaeria nodorum
  Efficacy: 100%
Septoria tritici
  Efficacy: 92%
Alternaria solani
  Efficacy: 100%
Pyrenophora teres
  Efficacy: 100%
[1]
  logP: 4.03
Venturia inaequalis
  Efficacy: 90%

## CCc1nn(C)c(F)c1C(=O)N(C[Si](C)(C)c1ccc(Cl)cc1Cl)C1CC1 [Example 42]
Leptosphaeria nodorum
  Efficacy: 100%
Septoria tritici
  Efficacy: 100%
Botrytis cinerea
  Efficacy: 100%
Alternaria solani
  Efficacy: 100%
Pyrenophora teres
  Efficacy: 100%
[1]
  logP: 4.78
Venturia inaequalis
  Efficacy: 99%

## Cn1nc(C(F)F)c(C(=O)NC[Si](C)(C)c2ccccc2Cl)c1F [Example 15]
Aspergillus parasiticus
  % Inhibition of fungal growth at 50 μM: 76%
[2]
  % Inhibition of Aflatoxin at 50 μM: 88%
Septoria tritici
  Efficacy: 90%
Alternaria solani
  Efficacy: 95%
Pyrenophora teres
  Efficacy: 100%
[1]
  logP: 3.48

## Cn1cc(C(=O)N(C[Si](C)(C)c2cc(Cl)cc(Cl)c2)C2CC2)c(C(F)F)n1 [Example 51]
Leptosphaeria nodorum
  Efficacy: 80% and 95%
Septoria tritici
  Efficacy: 100%
Alternaria solani
  Efficacy: 95%
Pyrenophora teres
  Efficacy: 100%
[1]
  logP: 4.41

## CCc1nn(C)c(F)c1C(=O)N(C[Si](C)(C)c1cc(Cl)cc(Cl)c1)C1CC1 [Example 49]
Leptosphaeria nodorum
  Efficacy: 94%
Septoria tritici
  Efficacy: 100%
Alternaria solani
  Efficacy: 94%
Pyrenophora teres
  Efficacy: 100%
[1]
  logP: 4.78
Venturia inaequalis
  Efficacy: 96%

## Cc1nn(C)c(F)c1C(=O)N(C[Si](C)(C)c1cc(Cl)cc(Cl)c1)C1CC1 [Example 48]
Leptosphaeria nodorum
  Efficacy: 100%
Alternaria solani
  Efficacy: 100%
Pyrenophora teres
  Efficacy: 100%
[1]
  logP: 4.34

## Cc1nn(C)c(F)c1C(=O)N(C[Si](C)(C)c1ccc(Cl)cc1Cl)C1CC1 [Example 39]
Leptosphaeria nodorum
  Efficacy: 94%
Septoria tritici
  Efficacy: 100%
Alternaria solani
  Efficacy: 94%
Pyrenophora teres
  Efficacy: 100%
[1]
  logP: 4.30
Venturia inaequalis
  Efficacy: 100%

## CCc1nn(C)c(F)c1C(=O)N(C[Si](C)(C)c1cccc(Cl)c1)C1CC1 [Example 28]
Leptosphaeria nodorum
  Efficacy: 100%
Septoria tritici
  Efficacy: 100%
Alternaria solani
  Efficacy: 100%
Pyrenophora teres
  Efficacy: 100%
[1]
  logP: 4.08
Venturia inaequalis
  Efficacy: 88%

## Cc1nn(C)c(F)c1C(=O)N(C[Si](C)(C)c1ccccc1Cl)C1CC1 [Example 19]
Leptosphaeria nodorum
  Efficacy: 100%
Septoria tritici
  Efficacy: 100%
Botrytis cinerea
  Efficacy: 100%
Alternaria solani
  Efficacy: 100%
Pyrenophora teres
  Efficacy: 100%
[1]
  logP: 3.60
Venturia inaequalis
  Efficacy: 99%

## Cn1nc(C(F)F)c(C(=O)N(C[Si](C)(C)c2ccsc2)C2CC2)c1F [Example 76]
Aspergillus parasiticus
  % Inhibition of fungal growth at 50 μM: 100%
[2]
  % Inhibition of Aflatoxin at 50 μM: 100%
Alternaria solani
  Efficacy: 94%
Pyrenophora teres
  Efficacy: 100%
[1]
  logP: 3.55

## Cn1nc(C(F)F)c(C(=O)N(C[Si](C)(C)Cc2ccc(Cl)cc2Cl)C2CC2)c1F [Example 70]
Aspergillus parasiticus
  % Inhibition of fungal growth at 50 μM: 100%
[2]
  % Inhibition of Aflatoxin at 50 μM: 100%
Alternaria solani
  Efficacy: 100%
Pyrenophora teres
  Efficacy: 100%
[1]
  logP: 5.03

## Cn1nc(C(F)F)c(C(=O)NC[Si](C)(C)c2cccc(Cl)c2)c1Cl [Example 25]
Aspergillus parasiticus
  % Inhibition of fungal growth at 50 μM: 84%
[2]
  % Inhibition of Aflatoxin at 50 μM: 99%
Alternaria solani
  Efficacy: 100%
Pyrenophora teres
  Efficacy: 100%
[1]
  logP: 3.71
